# Measured values from article PMC10041525, “New Dual Inhibitors of Bacterial Topoisomerases with Broad-Spectrum Antibacterial Activity and In Vivo Efficacy against Vancomycin-Intermediate Staphylococcus aureus” (Journal of Medicinal Chemistry, 2023).
# Where two headings read alike, the source gives them in different places.
# Legend:
# HepG2 cells = test: mitochondrial toxicity glu/gal assay; type: cell-based; conditions: human
# Protocol: (§1) HepG2 cells were seeded in two 96-well plates at a density of 50,000 cells per well in 100 μL of growth medium. For the first plate, the growth medium contained glucose and for the second plate, it contained galactose. Cells were incubated overnight in a 5% CO2 atmosphere at 37 °C and allowed to attach onto the wells. […] The medium contained positive control (Rotenone). […] Luminescence was measured with Tecan Infinite 200 pro luminometer, and the values from each well treated with compound were compared to the values given by the negative control (medium only). The inhibition of mitochondrial function was determined by comparing ATP levels in galactose and glucose exposed cells. […]
# [1] = mitochondrial toxicity glu/gal assay; type: cell-based; conditions: human, read-out: cell viability (ATP), % of control
# Protocol: as §1
# hERG channel = biological target: T1, hERG channel (Homo sapiens, UniProt Q12809); test: whole-cell patch-clamp on HEK293 cells; type: cell-based; conditions: 50 µM 7a, mean ± SD
# T1 construct: expressed in transfected cells; host or cells: HEK293 cells stably expressing the channel
# T1 sequence (Q12809 whole entry): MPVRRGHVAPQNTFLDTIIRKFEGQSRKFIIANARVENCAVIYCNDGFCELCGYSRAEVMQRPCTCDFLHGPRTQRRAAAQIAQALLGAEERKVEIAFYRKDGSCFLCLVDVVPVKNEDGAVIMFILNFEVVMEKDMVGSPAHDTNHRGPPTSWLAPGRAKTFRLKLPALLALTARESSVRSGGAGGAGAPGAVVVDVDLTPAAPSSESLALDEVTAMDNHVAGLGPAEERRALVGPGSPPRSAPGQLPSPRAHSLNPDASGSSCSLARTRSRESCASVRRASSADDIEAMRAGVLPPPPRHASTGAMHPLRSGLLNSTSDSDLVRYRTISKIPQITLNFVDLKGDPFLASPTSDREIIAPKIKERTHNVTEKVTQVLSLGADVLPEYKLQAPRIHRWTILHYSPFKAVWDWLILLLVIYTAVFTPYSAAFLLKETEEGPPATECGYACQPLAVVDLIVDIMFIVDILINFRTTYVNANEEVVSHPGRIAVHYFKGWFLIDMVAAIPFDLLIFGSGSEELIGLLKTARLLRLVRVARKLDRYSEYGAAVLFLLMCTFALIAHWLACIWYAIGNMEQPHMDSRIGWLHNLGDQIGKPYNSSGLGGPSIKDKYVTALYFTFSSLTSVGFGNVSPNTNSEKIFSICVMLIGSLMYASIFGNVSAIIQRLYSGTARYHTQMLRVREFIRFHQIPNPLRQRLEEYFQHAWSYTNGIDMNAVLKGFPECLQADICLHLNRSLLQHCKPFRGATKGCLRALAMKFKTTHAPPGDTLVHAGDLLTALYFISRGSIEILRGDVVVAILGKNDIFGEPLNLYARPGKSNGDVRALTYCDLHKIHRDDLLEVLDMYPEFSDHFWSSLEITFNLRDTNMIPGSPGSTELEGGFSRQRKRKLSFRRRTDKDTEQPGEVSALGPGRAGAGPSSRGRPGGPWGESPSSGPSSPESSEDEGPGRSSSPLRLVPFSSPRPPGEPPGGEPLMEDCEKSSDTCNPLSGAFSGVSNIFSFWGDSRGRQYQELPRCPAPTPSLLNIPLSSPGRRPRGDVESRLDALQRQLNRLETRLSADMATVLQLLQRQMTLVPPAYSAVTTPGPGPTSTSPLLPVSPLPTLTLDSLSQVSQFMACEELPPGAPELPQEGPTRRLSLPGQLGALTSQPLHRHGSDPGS
# Description: hERG inhibition was additionally determined in whole-cell patch-clamp experiments on HEK293 cells stably expressing the channel, as previously described.[55]
# [2] = formulation solubility study; type: physicochemical
# Protocol: For the actual in vivo assay, a […] pH was used, and the compound was prepared in a formulation of 100 mM carbonate buffer at pH 8.4 with 20% hydroxypropyl β-cyclodextrin.
# Solubility analysis was performed on an Acquity UPLC instrument (Waters, Milford, MA, USA). A Waters BEH C18 column (2.1 × 50 mm, 1.7 μm; Waters) was used at T = 40 °C, with the flow rate of 0.5 mL/min; PDA UV detection at λ = 256 nm; mobile phase A: 0.1% formic acid in ultrapure water; mobile phase B: 0.1% formic acid in acetonitrile. Gradient: 0–4 min, 5–100% B; 4–5 min, 100% B; 5–5.1 min, 100–5% B; 5.1–7 min, 5% B.
# [3] = biological target: T2, hERG potassium ion channel (Homo sapiens, UniProt Q12809); test: patch-clamp on transfected CHO cells; type: cell-based
# T2 construct: expressed in transfected cells; host or cells: CHO cells (stably transfected)
# T2 sequence (Q12809 whole entry): as above
# Protocol: (§2) hERG and NaV1.5 inhibition was measured with the patch-clamp method on stably transfected CHO cells according to previously described procedures.[34] […] The normalized hERG/NaV1.5 current is reported as mean ± standard error of the mean (SEM, N = 5–6).
# [4] = biological target: T3, sodium Nav1.5 ion channel (Homo sapiens, UniProt Q14524); test: patch-clamp on transfected CHO cells; type: cell-based
# T3 construct: expressed in transfected cells; host or cells: CHO cells (stably transfected)
# T3 sequence (Q14524 whole entry): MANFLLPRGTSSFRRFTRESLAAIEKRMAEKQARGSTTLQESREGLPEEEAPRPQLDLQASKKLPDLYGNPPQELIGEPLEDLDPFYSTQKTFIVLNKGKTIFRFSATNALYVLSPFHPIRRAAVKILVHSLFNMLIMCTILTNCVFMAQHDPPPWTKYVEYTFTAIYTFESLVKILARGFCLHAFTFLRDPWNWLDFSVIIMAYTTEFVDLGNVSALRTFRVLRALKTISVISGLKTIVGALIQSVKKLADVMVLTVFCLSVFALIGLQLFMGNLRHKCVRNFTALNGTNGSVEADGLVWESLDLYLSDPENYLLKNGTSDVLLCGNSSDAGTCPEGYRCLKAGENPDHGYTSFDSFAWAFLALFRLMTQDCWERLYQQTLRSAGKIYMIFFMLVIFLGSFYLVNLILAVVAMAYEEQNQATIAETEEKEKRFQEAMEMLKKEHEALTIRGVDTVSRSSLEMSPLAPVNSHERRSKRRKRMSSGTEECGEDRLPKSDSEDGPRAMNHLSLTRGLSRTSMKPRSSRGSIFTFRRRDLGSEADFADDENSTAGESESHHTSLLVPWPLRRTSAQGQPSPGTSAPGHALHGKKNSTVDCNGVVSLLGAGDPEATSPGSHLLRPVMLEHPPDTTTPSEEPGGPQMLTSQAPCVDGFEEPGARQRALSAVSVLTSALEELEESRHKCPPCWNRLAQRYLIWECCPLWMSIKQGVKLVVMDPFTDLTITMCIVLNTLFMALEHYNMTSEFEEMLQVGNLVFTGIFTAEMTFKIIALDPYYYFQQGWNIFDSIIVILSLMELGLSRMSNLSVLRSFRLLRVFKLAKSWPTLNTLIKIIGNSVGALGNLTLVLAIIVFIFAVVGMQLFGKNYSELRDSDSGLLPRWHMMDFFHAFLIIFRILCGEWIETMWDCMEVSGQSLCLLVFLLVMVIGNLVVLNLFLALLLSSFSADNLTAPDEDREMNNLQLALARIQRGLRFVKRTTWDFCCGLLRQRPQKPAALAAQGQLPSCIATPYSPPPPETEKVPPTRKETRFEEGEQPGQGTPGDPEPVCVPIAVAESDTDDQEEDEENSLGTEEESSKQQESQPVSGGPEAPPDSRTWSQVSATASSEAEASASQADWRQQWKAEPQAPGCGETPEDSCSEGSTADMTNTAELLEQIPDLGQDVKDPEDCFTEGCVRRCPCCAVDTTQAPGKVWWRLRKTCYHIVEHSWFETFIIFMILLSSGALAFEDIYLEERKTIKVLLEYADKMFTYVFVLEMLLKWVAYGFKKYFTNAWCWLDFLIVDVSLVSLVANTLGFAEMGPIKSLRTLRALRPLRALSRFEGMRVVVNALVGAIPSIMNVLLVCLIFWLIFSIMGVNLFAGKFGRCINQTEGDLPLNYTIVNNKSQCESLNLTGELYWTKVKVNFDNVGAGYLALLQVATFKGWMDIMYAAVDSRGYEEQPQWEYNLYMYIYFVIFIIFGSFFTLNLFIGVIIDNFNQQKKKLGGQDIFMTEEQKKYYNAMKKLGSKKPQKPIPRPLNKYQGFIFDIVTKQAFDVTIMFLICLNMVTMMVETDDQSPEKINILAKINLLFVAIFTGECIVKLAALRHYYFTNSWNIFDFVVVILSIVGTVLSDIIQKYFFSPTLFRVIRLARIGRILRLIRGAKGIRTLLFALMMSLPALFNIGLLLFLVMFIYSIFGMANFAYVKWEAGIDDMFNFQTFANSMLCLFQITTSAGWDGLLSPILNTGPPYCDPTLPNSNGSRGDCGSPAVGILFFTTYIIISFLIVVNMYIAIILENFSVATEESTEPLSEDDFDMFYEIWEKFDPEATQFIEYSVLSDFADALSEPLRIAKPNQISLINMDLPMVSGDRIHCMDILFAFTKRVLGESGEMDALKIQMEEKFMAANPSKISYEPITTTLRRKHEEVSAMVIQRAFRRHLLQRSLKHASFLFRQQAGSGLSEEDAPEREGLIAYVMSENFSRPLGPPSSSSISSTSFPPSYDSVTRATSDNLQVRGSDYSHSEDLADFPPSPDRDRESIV
# Protocol: as §2
# P. aeruginosa PAO1 = test: MIC broth microdilution (CLSI); type: cell-based; conditions: Pseudomonas aeruginosa; PAO1 used for 7l, 8b, 14, 16b, 16c
# Protocol: (§3) MICs (Tables 1 and S1–S3) were determined with a standard serial broth microdilution technique according to Clinical and Laboratory Standards Institute (CLSI) guidelines.[45] Cation-adjusted Mueller Hinton broth 2 (MHBII) was used for bacterial growth under standard laboratory conditions and for antimicrobial susceptibility tests. MHBII broth was prepared by dissolving 22 g of MHBII powder [containing beef extract (3 g), acid hydrolysate of casein (17.5 g), and starch (1.5 g); Becton Dickinson and Co.] in 1 L of water. To prepare MHBII agar, 14 g of agar (Bacto; Molar Chemicals) was added to 1 L of broth.
# (§4) Bacterial strains were inoculated onto MHBII agar plates and grown overnight at 37 °C. Next, three individual colonies from each strain were inoculated into 1 mL of MHBII medium and propagated at 37 °C overnight, with agitation at 250 rpm. For Enterococcus sp., the cells were plated in brain–heart infusion [(BHI) medium] agar plates, and BHI broth was used to determine the MICs. […] The highest final DMSO concentration in the experiments was 0.64% (in the case of the 64 μg/mL concentration of the inhibitor). Following the dilutions, each well was seeded with 5 × 10^4 bacterial cells (in 100 μL final volume). Each measurement was performed in three parallel replicates, and to avoid possible edge effects in the microwell plates, the outside rows (A, H) were filled with sterile medium. Following the inoculations, the plates were covered with the lids and wrapped in polyethylene plastic bags, to minimize evaporation but to allow O2 transfer. The plates were incubated at 37 °C under continuous shaking at 150 rpm for 18 h. After incubation, the OD600 of each well was measured using a microplate reader (Synergy 2; Biotek). The MICs were defined as the antibiotic concentrations which inhibited the growth of the bacterial cultures; that is, the drug concentration where the average OD600 increment of the three technical replicates was below 1.5-fold the background OD increment.
# (§5) cMIC, minimum inhibitory concentration
# (§6) Bacterial strains that were used: S. aureus ATCC 29213, S. aureus (MRSA) ATCC 43300, S. aureus (VISA) ATCC 700699, E. faecalis ATCC 29212, E. faecium ATCC 700221,
# (§7) E. coli ATCC 25922, P. aeruginosa ATCC 27853 (PAO1 for compounds 7l, 8b, 14), A. baumannii ATCC 17978 (ATCC 19606 for compounds 7l, 8b, 14), K. pneumoniae ATCC
# (§8) Measurements were performed according to the Clinical and Laboratory Standards Institute guidelines, with three independent measurements.
# A. baumannii ATCC 19606 = test: MIC broth microdilution (CLSI); type: cell-based; conditions: Acinetobacter baumannii, ATCC19606; ATCC 19606 used for 7l, 8b, 14, 16b, 16c; read-out: MIC
# Protocol: as §3, §4, §5, §6, §7, §8
# K. pneumoniae ATCC 13883 = test: MIC broth microdilution (CLSI); type: cell-based; conditions: Klebsiella pneumoniae, ATCC13883; ATCC 13883 used for 7l, 8b, 14, 16b, 16c
# Protocol: as §3, §4, §5, §6, §7, §8
# H. influenzae ATCC 49766 = system: H. influenzae ATCC 49766; design: method as in earlier work; conditions: QC range for H. influenzae ATCC 49766, ref CLSI; cited from earlier work
smiles,measurement,setting,value
"Cc1[nH]c(C(=O)Nc2nc3c(N4CCOCC4)cc(C(=O)O)cc3s2)c(Cl)c1Cl [7a, 2-(3,4-Dichloro-5-methyl-1H-pyrrole-2-carboxamido)-4-morpholinobenzo[d]thiazole-6-carboxylic Acid]",mitotoxic concentration (not mitotoxic up to),HepG2 cells,> 1000 µM
same,viability at 10 µM,[1]; galactose,98%
same,viability at 50 µM,[1]; galactose,98%
same,viability at 100 µM,[1]; galactose,97%
same,viability at 300 µM,[1]; galactose,98%
same,viability at 600 µM,[1]; galactose,94%
same,viability at 1000 µM,[1]; galactose,83%
same,viability at 10 µM,[1]; glucose,109%
same,viability at 50 µM,[1]; glucose,107%
same,viability at 100 µM,[1]; glucose,105%
same,viability at 300 µM,[1]; glucose,99%
same,viability at 600 µM,[1]; glucose,95%
same,viability at 1000 µM,[1]; glucose,79%
same,hERG inhibition (current reduction),hERG channel,0 ± 12%
same,solubility,"[2]; 100 mM carbonate buffer with 20% CD, pH 8.0, 20% CD",3800 µg/mL
same,solubility,"[2]; 100 mM carbonate buffer, pH 9.0, 20% hydroxypropyl β-cyclodextrin",13200 µg/mL
same,inhibition of hERG,[3]; 50 µM,no significant inhibition
same,hERG current fraction (normalized to neg. control),"[3]; 50 µM 7a, mean ± SEM",1.01 ± 0.02
same,inhibition of Nav1.5,[4]; 10 µM,no significant inhibition
same,Nav1.5 current fraction (normalized to neg. control),"[4]; 10 µM 7a, mean ± SEM",0.97 ± 0.03
"Cc1[nH]c(C(=O)Nc2nc3c(N4CCOCC4)cc(C(=O)O)cc3s2)cc1F [16b, 2-(4-Fluoro-5-methyl-1H-pyrrole-2-carboxamido)-4-morpholinobenzo[d]thiazole-6-carboxylic Acid]",MIC,P. aeruginosa PAO1,> 64 µg/mL
same,MIC,A. baumannii ATCC 19606,> 64 µg/mL
same,MIC,K. pneumoniae ATCC 13883,> 64 µg/mL
"C[C@@H](O)[C@H]1C(=O)N2C(C(=O)O)=C(SCCNC=N)C[C@H]12 [Imipenem, imipenem]","MIC, CLSI Range",H. influenzae ATCC 49766,"0,25 - 1 µg/mL"
